According to US7323460B2, “N-(substituted benzyl)-8-hydroxy-1,6-naphthyridine-7-carboxamides useful as HIV integrase inhibitors” (Merck & Co., Inc., priority 2002, dated 2008):

Tests used:
[1] = test system: HIV; assay: Antiviral potency in the presence of human serum proteins; type: cell-based; settings: relative to closely related N-benzyl-8-hydroxy-1,6-naphthyridine carboxamide integrase inhibitors without ortho polar substituent
[2] = test system: HIV mutants that are resistant to other integrase inhibitors; assay: Antiviral activity against HIV mutants resistant to other integrase inhibitors; type: cell-based
[3] = biological target: T1, HIV integrase (recombinant integrase) (Human immunodeficiency virus type 1 group M subtype B, UniProt P04585); assay: HIV integrase assay: strand transfer catalyzed by recombinant integrase; type: biochemical
T1 construct: HIV Integrase Assay: Strand Transfer Catalyzed by Recombinant Integrase
Method: HIV Integrase Assay: Strand Transfer Catalyzed by Recombinant Integrase
Assays for the strand transfer activity of integrase were conducted in accordance with the method described in Example 193 of WO 02/30930 for recombinant integrase.
Further description on conducting the assay using preassembled complexes is found in Wolfe, A. L. et al., J. Virol. 1996, 70: 1424-1432, Hazuda et al., J. Virol. 1997, 71: 7005-7011; Hazuda et al., Drug Design and Discovery 1997, 15: 17-24; and Hazuda et al., Science 2000, 287: 646-650.

Compound | antiviral potency in the presence of human serum proteins [1] | antiviral activity against several HIV mutants resistant to other integrase inhibitors [2] | IC50 [3] [nM]
CNC(=O)c1cc(F)ccc1CNC(=O)c1nc(N2CCCCS2(=O)=O)c2cccnc2c1O [Compound A, N-{4-fluoro-2-[(methylamino)carbonyl]benzyl}-5-(1,1-dioxido-1,2-thiazinan-2-yl)-8-hydroxy-1,6-naphthyridine-7-carboxamide] | improved | retention of significant antiviral activity | –
CNC(=O)c1cc(F)ccc1CNC(=O)c1nc(N2CCCCS2(=O)=O)c2cccnc2c1O [Example 3, Sodium 5-(1,1-dioxido-1,2-thiazinan-2-yl)-7-[({4-fluoro-2-[(methylamino)carbonyl]-benzyl}amino)carbonyl]-1,6-naphthyridin-8-olate] | – | – | < 500
